These are literature values, as cited in US8303934B2, “Methods and compositions of [32P]-labeled adenine nucleotides for the treatment of atherosclerosis, vascular arterial diseases and coronary artery diseases” (priority 2011, dated 2012).

The subject of the data set is established human xenographed tumors. The following applies: established human xenografted tumors in athymic mice; low-level doses. On the technique in general: Xenograft models place foreign cells or tissue in a host animal.

Turning to `Nc1ncnc2c1ncn2[C@@H]1O[C@H](COP(=O)(O)OP(=O)(O)OP(=O)(O)O)[C@@H](O)[C@H]1O` [[32P]ATP, [32P]adenosine 5′-triphosphate], the “activity as an anti-tumor cytotoxic agent” value is given as “very active”.
